One series has as its target Cytochrome P450 3A4 (Homo sapiens, UniProt P08684). In words: Inhibition of CYP3A4 in human liver microsomes using midazolam substrate incubated for 5 mins in presence of NADPH by UPLC-MS/MS analysis. (In general: Microsomes from liver hold many membrane-bound enzymes, among them those of drug oxidation.)
Series [1] concerns the target Mitogen-activated protein kinase kinase kinase 20 (Homo sapiens, UniProt Q9NYL2). The experiment in a line: Inhibition of ZAK in human MOLM16 cells. It is filed as cell-based.
A short description of series [2]: Unbound fraction in Sprague-Dawley rat plasma at 1 mg/kg, iv measured upto 24 hrs. It is filed as ADME, organism-based.
A short description of series [3]: Apparent permeability across apical to basolateral in human Caco-2 cells at 5 uM measured after 120 mins by UPLC-MS/MS analysis. For orientation: Caco-2 cells form a polarised layer with tight junctions and transporters.
Series [4] addresses Phosphatidylinositol 4-phosphate 3-kinase C2 domain-containing subunit beta (Homo sapiens, UniProt O00750). In words: Inhibition of PIK3C2B in human MOLM16 cells. It is filed as cell-based.
Series [5] addresses T1, Eukaryotic translation initiation factor 2-alpha kinase 3 (Homo sapiens, UniProt Q9NZJ5).
T1 sequence (Q9NZJ5 whole entry): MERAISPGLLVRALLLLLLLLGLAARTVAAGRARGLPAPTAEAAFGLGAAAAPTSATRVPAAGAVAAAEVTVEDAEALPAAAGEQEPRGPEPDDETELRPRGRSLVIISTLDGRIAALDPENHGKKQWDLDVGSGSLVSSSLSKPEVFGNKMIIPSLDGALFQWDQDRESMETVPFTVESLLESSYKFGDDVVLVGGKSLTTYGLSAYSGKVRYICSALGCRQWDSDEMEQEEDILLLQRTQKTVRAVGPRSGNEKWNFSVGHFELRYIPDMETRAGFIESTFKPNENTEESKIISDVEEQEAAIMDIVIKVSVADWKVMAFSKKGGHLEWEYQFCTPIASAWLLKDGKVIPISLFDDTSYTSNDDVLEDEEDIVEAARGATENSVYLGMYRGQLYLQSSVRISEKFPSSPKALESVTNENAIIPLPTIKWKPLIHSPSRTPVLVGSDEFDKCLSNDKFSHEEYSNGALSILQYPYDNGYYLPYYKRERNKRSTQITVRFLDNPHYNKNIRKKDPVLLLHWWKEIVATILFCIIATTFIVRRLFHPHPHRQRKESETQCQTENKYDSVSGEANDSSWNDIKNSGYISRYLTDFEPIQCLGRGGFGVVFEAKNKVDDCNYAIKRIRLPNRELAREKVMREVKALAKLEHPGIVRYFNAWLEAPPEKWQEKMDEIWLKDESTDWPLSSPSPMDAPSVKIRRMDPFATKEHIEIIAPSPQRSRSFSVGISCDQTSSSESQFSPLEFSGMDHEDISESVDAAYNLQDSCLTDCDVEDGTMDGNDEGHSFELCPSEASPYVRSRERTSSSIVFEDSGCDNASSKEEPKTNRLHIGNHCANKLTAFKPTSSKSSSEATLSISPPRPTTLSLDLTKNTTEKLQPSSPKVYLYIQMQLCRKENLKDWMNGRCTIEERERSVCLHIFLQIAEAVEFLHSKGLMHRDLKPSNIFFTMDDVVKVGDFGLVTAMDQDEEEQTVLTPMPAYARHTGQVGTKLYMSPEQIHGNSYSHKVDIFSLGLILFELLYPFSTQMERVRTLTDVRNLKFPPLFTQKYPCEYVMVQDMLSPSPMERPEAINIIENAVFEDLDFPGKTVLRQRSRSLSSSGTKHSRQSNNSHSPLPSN
The experiment in a line: Inhibition of PEK in human MOLM16 cells. The series is classed as cell-based.

Series [6] is described as follows: Antitumor activity against human MOLM16 cells xenografted in BALB/c nude mouse assessed as tumor growth inhibition at 1 mg/kg administered twice a day for 17 days. The series is classed as functional, MOLM-16. Particulars: MOLM16, 408 h, time 17 day, read-out: TGI. A general note: In xenograft studies the graft and the host belong to different species.
The nature of series [7]: Unbound clearance in Sprague-Dawley rat plasma at 1 mg/kg, iv measured upto 24 hrs. Particulars: in vivo. The series is classed as ADME, organism-based.
Series [8] is described as follows: Intrinsic clearance in human hepatocytes assessed per 10^4 cells at 1 uM measured upto 120 mins by UPLC-MS/MS analysis. To be noted: 2 h. The series is classed as ADME, cell-based, Hepatocyte.
Series [9] can be described thus: Unbound clearance in BALB/c mouse plasma at 3 mg/kg, po and 1 mg/kg, iv measured upto 24 hrs. Particulars: in vivo. It is filed as ADME, organism-based.
A short description of series [10]: Unbound volume of distribution at steady state in Sprague-Dawley rat at 1 mg/kg, iv measured upto 24 hrs. It is filed as ADME, organism-based. Particulars: in vivo.
A short description of series [11]: Unbound Cmax in BALB/c mouse at 3 mg/kg, po and 1 mg/kg, iv measured upto 24 hrs. To be noted: in vivo. It is filed as ADME, organism-based.
Series [12] can be described thus: Cmax in BALB/c mouse at 3 mg/kg, po and 1 mg/kg, iv measured upto 24 hrs. The series is classed as ADME, organism-based. Particulars: in vivo.
The target of series [13] is T1, Eukaryotic translation initiation factor 2-alpha kinase 3. In words: Activation of PERK in HEK293 cells transfected with ATF4 response element preincubated for 30 mins followed by tunicamycin addition and measured after 6 hrs by One-Glo reagent based plate reader assay. It is filed as cell-based.
The nature of series [14]: Oral bioavailability in Sprague-Dawley rat at 3 mg/kg measured upto 24 hrs. The series is classed as ADME, organism-based. Particulars: in vivo, po, 3 mg/kg, 24 h.
The nature of series [15]: Cmax in Sprague-Dawley rat at 3 mg/kg, po measured upto 24 hrs. The series is classed as ADME, organism-based. Particulars: in vivo.
The nature of series [16]: Unbound AUC in Sprague-Dawley rat at 3 mg/kg, po measured upto 24 hrs. It is filed as ADME, organism-based. Particulars: in vivo.
The test system of another series is HT-1080. The experiment in a line: Antitumor activity against human HT-1080 cells xenografted in BALB/c nude mouse assessed as mean tumor growth inhibition at 1 mg/kg administered twice a day for 14 days. It is filed as functional. To be noted: HT-1080, 336 h, time 14 day, read-out: TGI.
Series [17] in a line: Volume of distribution at steady state in Sprague-Dawley rat at 1 mg/kg, iv measured upto 24 hrs. It is filed as ADME, organism-based. To be noted: in vivo, read-out: Vdss.
Series [18] concerns the target Receptor-interacting serine/threonine-protein kinase 3 (Homo sapiens, UniProt Q9Y572). In words: Inhibition of RIPK3 in human MOLM16 cells. The series is classed as cell-based.
Series [19] in a line: Half-life in BALB/c mouse at 3 mg/kg, po and 1 mg/kg, iv measured upto 24 hrs. It is filed as ADME, organism-based. Particulars: in vivo.

Phosphatidylinositol 4-phosphate 3-kinase C2 domain-containing subunit beta, sequence (O00750 whole entry, the tested form may be a part): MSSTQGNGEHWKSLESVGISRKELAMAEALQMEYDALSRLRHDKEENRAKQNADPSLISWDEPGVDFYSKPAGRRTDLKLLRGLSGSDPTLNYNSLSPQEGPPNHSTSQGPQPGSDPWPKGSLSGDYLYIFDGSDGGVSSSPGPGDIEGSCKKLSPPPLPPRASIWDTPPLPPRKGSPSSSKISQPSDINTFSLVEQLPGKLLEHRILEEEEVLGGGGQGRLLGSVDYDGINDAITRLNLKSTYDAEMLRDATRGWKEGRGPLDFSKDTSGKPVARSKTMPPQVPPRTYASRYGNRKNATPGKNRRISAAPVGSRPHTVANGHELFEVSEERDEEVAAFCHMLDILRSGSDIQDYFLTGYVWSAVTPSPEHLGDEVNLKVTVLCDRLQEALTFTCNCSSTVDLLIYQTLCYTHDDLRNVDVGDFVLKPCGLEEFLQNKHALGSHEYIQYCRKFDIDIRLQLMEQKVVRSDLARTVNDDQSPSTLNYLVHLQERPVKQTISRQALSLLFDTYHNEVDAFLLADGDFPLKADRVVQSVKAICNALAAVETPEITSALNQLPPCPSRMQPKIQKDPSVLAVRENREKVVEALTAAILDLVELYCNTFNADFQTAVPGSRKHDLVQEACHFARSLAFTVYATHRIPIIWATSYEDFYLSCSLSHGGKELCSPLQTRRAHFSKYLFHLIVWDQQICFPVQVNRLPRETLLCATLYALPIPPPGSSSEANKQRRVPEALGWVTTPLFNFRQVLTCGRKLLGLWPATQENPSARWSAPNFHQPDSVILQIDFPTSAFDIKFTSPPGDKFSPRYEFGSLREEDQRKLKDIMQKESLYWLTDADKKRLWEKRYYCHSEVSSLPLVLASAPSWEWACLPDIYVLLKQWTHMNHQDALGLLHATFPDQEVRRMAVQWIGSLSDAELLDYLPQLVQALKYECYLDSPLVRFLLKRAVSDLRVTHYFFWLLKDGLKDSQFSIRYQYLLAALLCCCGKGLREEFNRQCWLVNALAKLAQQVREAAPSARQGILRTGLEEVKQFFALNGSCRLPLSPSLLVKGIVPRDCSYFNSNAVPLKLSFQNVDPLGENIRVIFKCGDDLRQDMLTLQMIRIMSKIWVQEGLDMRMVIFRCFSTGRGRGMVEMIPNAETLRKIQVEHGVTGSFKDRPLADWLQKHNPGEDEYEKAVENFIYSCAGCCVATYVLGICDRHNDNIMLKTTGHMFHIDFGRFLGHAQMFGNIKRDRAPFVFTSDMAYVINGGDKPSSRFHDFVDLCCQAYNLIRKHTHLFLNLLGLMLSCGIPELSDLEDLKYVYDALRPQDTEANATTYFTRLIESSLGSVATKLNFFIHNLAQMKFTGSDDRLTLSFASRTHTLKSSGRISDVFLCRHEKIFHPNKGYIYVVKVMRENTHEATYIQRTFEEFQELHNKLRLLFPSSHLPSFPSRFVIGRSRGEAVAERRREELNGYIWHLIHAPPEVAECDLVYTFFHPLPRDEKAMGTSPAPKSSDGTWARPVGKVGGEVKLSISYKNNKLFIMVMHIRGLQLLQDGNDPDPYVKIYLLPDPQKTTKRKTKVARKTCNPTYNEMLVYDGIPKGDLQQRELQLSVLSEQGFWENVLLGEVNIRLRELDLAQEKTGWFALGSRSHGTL
Mitogen-activated protein kinase kinase kinase 20, sequence (Q9NYL2 whole entry): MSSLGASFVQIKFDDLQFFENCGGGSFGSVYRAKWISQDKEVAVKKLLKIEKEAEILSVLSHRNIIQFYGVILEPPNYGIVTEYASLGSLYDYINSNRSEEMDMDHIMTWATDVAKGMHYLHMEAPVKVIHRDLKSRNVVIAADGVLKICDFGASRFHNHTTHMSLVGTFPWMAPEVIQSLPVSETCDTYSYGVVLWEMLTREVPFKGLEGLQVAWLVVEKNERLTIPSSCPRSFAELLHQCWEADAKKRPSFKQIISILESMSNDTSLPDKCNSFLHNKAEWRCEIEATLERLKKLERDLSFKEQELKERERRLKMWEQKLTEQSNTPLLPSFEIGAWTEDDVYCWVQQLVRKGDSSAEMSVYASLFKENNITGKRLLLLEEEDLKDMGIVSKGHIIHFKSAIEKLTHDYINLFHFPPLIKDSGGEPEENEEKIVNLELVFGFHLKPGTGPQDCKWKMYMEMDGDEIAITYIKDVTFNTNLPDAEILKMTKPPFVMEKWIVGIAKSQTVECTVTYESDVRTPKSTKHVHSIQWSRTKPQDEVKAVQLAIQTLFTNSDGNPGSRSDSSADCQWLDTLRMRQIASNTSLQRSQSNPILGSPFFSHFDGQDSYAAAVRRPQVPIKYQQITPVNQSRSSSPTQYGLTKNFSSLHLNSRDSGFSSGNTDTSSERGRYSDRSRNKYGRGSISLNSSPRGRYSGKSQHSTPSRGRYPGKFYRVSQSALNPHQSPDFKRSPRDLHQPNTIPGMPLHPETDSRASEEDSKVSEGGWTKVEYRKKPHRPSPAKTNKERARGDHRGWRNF
Cytochrome P450 3A4, sequence (P08684 whole entry): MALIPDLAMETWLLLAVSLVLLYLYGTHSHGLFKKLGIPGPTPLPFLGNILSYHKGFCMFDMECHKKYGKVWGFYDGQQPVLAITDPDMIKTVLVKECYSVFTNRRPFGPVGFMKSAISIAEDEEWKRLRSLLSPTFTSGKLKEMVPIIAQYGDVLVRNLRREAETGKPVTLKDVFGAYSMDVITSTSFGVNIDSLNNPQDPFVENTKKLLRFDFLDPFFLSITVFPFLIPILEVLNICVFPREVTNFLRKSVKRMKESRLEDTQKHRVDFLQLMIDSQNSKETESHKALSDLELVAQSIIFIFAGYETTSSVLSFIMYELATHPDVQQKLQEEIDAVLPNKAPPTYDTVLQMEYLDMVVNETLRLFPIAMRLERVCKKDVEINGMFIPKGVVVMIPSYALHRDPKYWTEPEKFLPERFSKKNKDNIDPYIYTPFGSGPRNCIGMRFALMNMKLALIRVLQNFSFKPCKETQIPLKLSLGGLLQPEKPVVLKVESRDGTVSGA
Receptor-interacting serine/threonine-protein kinase 3, sequence (Q9Y572 whole entry): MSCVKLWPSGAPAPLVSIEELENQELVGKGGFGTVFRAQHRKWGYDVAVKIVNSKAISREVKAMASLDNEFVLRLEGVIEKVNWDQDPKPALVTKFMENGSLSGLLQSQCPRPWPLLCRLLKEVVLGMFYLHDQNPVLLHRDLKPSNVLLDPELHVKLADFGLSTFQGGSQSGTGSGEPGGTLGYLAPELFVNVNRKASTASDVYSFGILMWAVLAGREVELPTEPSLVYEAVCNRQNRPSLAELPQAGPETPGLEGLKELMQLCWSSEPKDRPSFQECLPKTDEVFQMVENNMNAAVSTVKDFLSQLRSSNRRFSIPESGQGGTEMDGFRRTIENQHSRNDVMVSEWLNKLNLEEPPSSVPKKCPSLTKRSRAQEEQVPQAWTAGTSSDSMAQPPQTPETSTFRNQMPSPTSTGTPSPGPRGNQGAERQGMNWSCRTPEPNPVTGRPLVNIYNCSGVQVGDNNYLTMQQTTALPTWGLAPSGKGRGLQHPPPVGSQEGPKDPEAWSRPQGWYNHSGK

As a reminder, the IC50 is the concentration that gives 50% inhibition. For orientation: fraction unbound means the share of the substance not bound to proteins or other matrix. What is called Papp A→B is the apparent permeability from the apical to the basolateral side of a cell layer. One may read the Cmax as the maximum level reached in the sampled fluid or tissue. As usually defined, the EC50 is the concentration giving half of the maximal effect. Read a high EC50 as weaker potency. As usually defined, the half-life is how long it takes for the measured level to halve. The low end stands for rapid decline, the high end for slow decline. As to `CNC(=O)c1ncn2cc(-c3c(F)ccc(NS(=O)(=O)c4cc(Cl)cnc4OC)c3F)ncc12`, the IC50 on Cytochrome P450 3A4 worked out at 33 µM; in series [1], 47 nM; in series [4] it was 3.4 µM; in series [5], 5.2 µM; in series [18], 9 µM. The molecule further returned a fraction unbound at 24 h in series [2] of 0.001. Besides, the Papp A→B at 2 h, 5 µM in series [3] is 9.7 ×10⁻⁶ cm/s. Further, the inhibition in vivo at 1 mg/kg in series [6] is 97%; in the series on HT-1080, 80%. Also, the CL free in [7] came to 290 mL/min/kg; in [9] it was 70 mL/min/kg. The molecule further had a CLH in [8] of 4.7 µL/min. The molecule further returned a fVdss in series [10] of 130 L/kg. Besides, the fCmax in series [11] is recorded as 52 nM. The Cmax in series [12] was 26.1 µM; in series [15], 10.1 µM. Besides, in series [13], the EC50 came to 6.9 µM. Besides, in [14], the F was 29%. Also, in series [16], the fAUC came to 48 nM·h. In series [17], the Vd is 0.093 L/kg. The molecule further showed a half-life in series [19] of 600 min.

For the origin of these results see ChEMBL document CHEMBL5543122, “Discovery of HC-7366: An Orally Bioavailable and Efficacious GCN2 Kinase Activator” (J Med Chem, 2024).
